Here are results for one compound from US20230302014A1, “USES OF GLUCOCORTICOID RECEPTOR (GR) ANTAGONIST AND ANDROGEN RECEPTOR (AR) DEGRADER COMBINATIONS” (ORIC Pharmaceuticals, Inc., priority 2020, published 2023).

This experiment deals with CWR22PC cells. The experiment in a line: Cell growth (cell number) of prostate cancer cells under long-term treatment. Format: cell-based, Human. The following applies: CWR22PC; CSS media; 21 days; 0.1 nM R1881 + 1 µM ARV-110, + 30 nM dexamethasone, + 0.5 µM compound 1. On the procedure: (§1) CWR22PC cells were seeded at a density of 2 × 10^5 cells/well in 6-well plates (Corning# 3516) in 2 mL of RPMI-1640 media supplemented with 10% charcoal-stripped serum (CSS) in duplicate. 24 hours later, cells were treated with 100 pM R1881, 30 nM dexamethasone, 0.5 µM compound 1, 1 µM of ARD1 or ARD2, or combinations thereof as indicated. Fresh media containing the indicated treatment was replaced every 5-7 days. Cell supernatant was collected on Day 12 and 19 and stored at -80° C. for PSA AlphaLISA assay. Cell images were taken on Day 12 and 19 using Leica DMi8 microscope (LEICA MICROSYSTEMS, INC. IL) with a 10X magnification. Cells were then trypsinized and cell numbers in each treatment group were counted three times, average counts were plotted with GraphPad Prism 8. Cell pellets were washed once with 1XPBS and then lysed in 600 µL RLT RNA lysis buffer and stored at -80° C. RNA was extracted for end of study (EOS) biomarker analysis for which the detailed procedures are described in the section RNA Extraction and RT-qPCR analysis.
The impact of ARD1 and ARD2 on the growth of prostate cancer cells was explored. CWR22PC cells were plated in charcoal-stripped serum (CSS) media and treated with vehicle or 0.1 nM R1881 (synthetic AR ligand) without or with 1 µM of ARD1 or ARD2. Media with treatments were replaced every 5-7 days and cells were maintained at 37° C. for 22 days. Supernatant of each group was harvested at day 22 to measure PSA secretion by PSA AlphaLISA assays.
as §1, with “24 hours later, cells were treated with 100 pM R1881, 30 nM dexamethasone, 0.5 µM compound 1, 1 µM of ARD1 or ARD2, or combinations thereof as indicated.” left out, “15” for “12”, “21” for “19”, “assay.” for “assay. Cell images were taken on Day 12 and 19 using Leica DMi8 microscope (LEICA MICROSYSTEMS, INC. IL) with a 10X magnification.”

For the compound `N#Cc1ccc(O[C@H]2CC[C@H](NC(=O)c3ccc(N4CCC(CN5CCN(c6cc7c(cc6F)C(=O)N(C6CCC(=O)NC6=O)C7=O)CC5)CC4)nn3)CC2)cc1Cl` (stereo partly drawn) [ARV-110, N-[trans-4-(3-chloro-4-cyanophenoxy)cyclohexyl]-6-[4-[[4-[2-(2,6-dioxo-3-piperidinyl)-6-fluoro-2,3-dihydro-1,3-dioxo-1H-isoindol-5-yl]-1-piperazinyl]methyl]-1-piperidinyl]-3-pyridazinecarboxamide], the R1881-induced cell growth result is recorded as “blunts”.
